# Source: patent publication US4534979A, “Polyene compounds useful in the treatment of psoriasis and allergic responses” (USV Pharmaceutical Corp., priority 1984, dated 1985)
# pIC50: −log10 of the molar value. Like-named read-outs stand apart in the source and are kept apart here.
# Assays:
# [1] = system: mouse epidermal cell culture; experiment: mouse epidermal cell culture, cell proliferation by uptake of tritiated thymidine into DNA; assay type: cell-based; details: for percentage uptake in comparison to the standards (TRA, CRA): all time points; for activity at 12 µg/mL: Mus musculus, read-out: percentage uptake of tritiated thymidine relative to vehicle control (100%)
# [2] = system: mouse epidermal cell culture; experiment: mouse epidermal cell culture, anti-differentiation activity (Kreyberg staining and nuclei enumeration); assay type: cell-based; parameters: key to culture staining by the Kreyberg technique, score (maximum differentiation 10): Kreyberg staining score; 10 = maximum differentiation; key to nuclei enumeration, score (maximum differentiation 0): nuclei enumeration score; 0 = maximum differentiation; details: 12 ug/ml; for culture staining by the Kreyberg technique, score (maximum differentiation 10): first number of the ratio; for nuclei enumeration, score (maximum differentiation 0): second number of the ratio
# Excerpt: (§1) Compounds of this invention are active against various skin disorders, such as acne and psoriasis, when tested according to models considered to be predictive of the clinical condition in humans. The models used were the rhino mouse procedure (Kligman, et al., J. Investigative Dermatology 73, 354 (1979)), the rabbit comedolytic procedure (Mills O. H., Kligman A. M.: Assay of Comedolytic Agents in the Rabbit Ear, Animal Models in Dermatology; Relevance to Human Dermatopharmacology and Dermatotoxicology,edited by H. I. Maibach, New York Churchill-Livingston, 1975, pp. 176-183) and the mouse epidermal cell culture procedure (Marcelo, et al., J. Cell Biol., 79, 356 (1978). Testing was done comparatively against standard retinoids known to be effective in these disorders and against a known α-methyl retinoid (2,7-dimethyl-9-(2,6,6-trimethyl-1-cyclohexene-1-yl)-2,3,6,8-nonatetraenoic acid, referred to as DTCNA).
# The ratios in the table represent scoring of two measured parameters, culture staining by the Kreyberg technique (maximum differentiation 10) and nuclei enumeration (maximum differentiation 0). Thus the highest possible anti-differentiative activity would be given by the ratio 0/10.
# [3] = system: 5-Lipoxygenese pathway (LOX, Rat PMN); experiment: lipoxygenase pathway inhibition assay (14C-arachidonic acid oxidation by neutrophil homogenate); assay type: biochemical; details: concentration required for inhibition of the 5-Lipoxygenese pathway; read-out: LOX, Rat PMN (I50)
# rabbit ear comedones = experiment: rabbit comedolytic procedure (rabbit ear model); assay type: in vivo; details: concentration of 0.05%, compared with TRA
# Excerpt: as §1
# (§2) Activity equal to or greater than the standards and the known compound was shown by 2,5,9-trimethyl-11-(2,6,6-trimethyl-1-cyclohexene-1-yl)-2,4,6,8,10-undecapentaenoic acid (TTCUA).
# [4] = system: rhino mouse utriculi (pseudocomedones); experiment: rhino mouse procedure; assay type: in vivo; details: rhino mouse model, concentration 0.05%
# Excerpt: as §1, §2
# [5] = 72 h, 12 ug/ml, day 3 of culture exposure to drug
# [6] = 120 h, 12 ug/ml, day 5 of culture exposure to drug
# [7] = 240 h, 12 ug/ml, day 10 of culture exposure to drug
pIC50 [3],Structure (SMILES),"culture staining by the Kreyberg technique, score (maximum differentiation 10) ([2]; day 3)","nuclei enumeration, score (maximum differentiation 0) ([2]; day 3)","culture staining by the Kreyberg technique, score (maximum differentiation 10) ([2]; day 6)","nuclei enumeration, score (maximum differentiation 0) ([2]; day 6)","culture staining by the Kreyberg technique, score (maximum differentiation 10) ([2]; day 10)","nuclei enumeration, score (maximum differentiation 0) ([2]; day 10)",other results
–,CC1=C(/C=C/C(C)=C/C=C/C(C)=C\C(=O)O)C(C)(C)CCC1 [CRA],2,7,2,7,2,6.5,"percentage uptake of tritiated thymidine relative to vehicle control (100%) ([1]; 12 ug/ml, day 3 of culture exposure to drug): 47%; percentage uptake of tritiated thymidine relative to vehicle control (100%) ([1]; 12 ug/ml, day 5 of culture exposure to drug): 75%; percentage uptake of tritiated thymidine relative to vehicle control (100%) ([1]; 12 ug/ml, day 10 of culture exposure to drug): 64%"
–,CC(C=CC1=C(C)CCCC1(C)C)=CC=CC=C(C)C(=O)O [DTCNA],3,6,2,6,2,5,"percentage uptake in comparison to the standards (TRA, CRA) ([1]; 12 ug/ml): about the same; activity at 12 µg/mL [1, 5]: 53%; activity at 12 µg/mL [1, 6]: 61%; activity at 12 µg/mL [1, 7]: 60%"
4.89,"CC\C(=C/C=C(C)/C=C/C=C(C)/C=C/C1=C(C)CCCC1(C)C)C(=O)O [Example 3B, 5,9-Dimethyl-2-Ethyl-11-(2,6,6-Trimethyl-1-Cyclohexen-1-yl)-2,4,6,8,10-Undecapentaenoic Acid]",–,–,–,–,–,–,–
5.70,"CC(/C=C/c1ccc(OCc2ccccc2)cc1)=C\C=C\C(=O)O [Example 6, 7-(4-Benzyloxyphenyl)-5-Methyl-Hepta-2,4,6-Trienoic Acid]",–,–,–,–,–,–,–
5.00,"COc1cc(C)c(/C=C/C(C)=C/C=C/C(=O)O)c(C)c1C [Example 8, 7-(4-Methoxy-2,3,6-Trimethylphenyl)-5-Methyl-Hepta-2,4,6-Trienoic Acid]",–,–,–,–,–,–,–
–,"CC1=C(/C=C/C(C)=C/C=C/C(C)=C/C=C(\C)C(=O)O)C(C)(C)CCC1 [TTCUA, 2,5,9-trimethyl-11-(2,6,6-trimethyl-1-cyclohexene-1-yl)-2,4,6,8,10-undecapentaenoic acid]",2,6,0.5,8.5,1,7.5,"ability to reduce comedone size (rabbit ear comedones): equal to trans retinoic acid (TRA); percentage uptake in comparison to the standards (TRA, CRA) ([1]; 12 ug/ml): up to five fold less; activity at 12 µg/mL [1, 5]: 31%; activity at 12 µg/mL [1, 6]: 15%; activity at 12 µg/mL [1, 7]: 21%; anti-differentiation activity ([2]; mouse epidermal cell culture): more active in both parameters than the two standards and high; epidermal hyperplasia of the skin [4]: moderate epidermal hyperplasia; ability to reduce the amount of horny impaction in the utriculi ([4]; compared with TRA): equal to TRA; ability to reduce the size of utriculi (pseudocomedones) ([4]; compared with TRA): equal to TRA; skin wrinkling ([4]; versus untreated control animals): significantly less wrinkling"

Structure (SMILES),pIC50 [3],"culture staining by the Kreyberg technique, score (maximum differentiation 10) ([2]; day 3)","nuclei enumeration, score (maximum differentiation 0) ([2]; day 3)","culture staining by the Kreyberg technique, score (maximum differentiation 10) ([2]; day 6)","nuclei enumeration, score (maximum differentiation 0) ([2]; day 6)","culture staining by the Kreyberg technique, score (maximum differentiation 10) ([2]; day 10)","nuclei enumeration, score (maximum differentiation 0) ([2]; day 10)",other results
"CC1=C(/C=C/C(C)=C/C=C/C(C)=C/C(=O)O)C(C)(C)CCC1 [TRA, trans retinoic acid]",4.05,3,5,3,5,2,6,activity at 12 µg/mL ([1]; 72 h): 77%; activity at 12 µg/mL ([1]; 120 h): 53%; activity at 12 µg/mL ([1]; 240 h): 36%
